Tests used:
CDK4/Cyclin D1 = CDK4/Cyclin D1 (Homo sapiens (Human), UniProt P11802); assay: CDK4/Cyclin D1 kinase TR-FRET inhibition assay; assay type: biochemical; details: 1 mM ATP, Rb (Ser780)-biotin substrate, read-out: CDK4D1 IC50
Protocol: (§1) Compounds disclosed herein were tested for inhibition of CDK4/Cyclin D1 or CDK6/Cyclin D3 kinase in an assay based on the time-resolved fluorescence-resonance energy transfer (TR-FRET) methodology. The assay was carried out in 384-well low volume black plates in a reaction mixture containing CDK4/Cyclin D1 or CDK6/Cyclin D3, 1 mM ATP, 0.15 μM Rb (Ser780)-biotin substrate and 0-10 μM compound in buffer containing 50 mM HEPES pH7.0, 0.02% NaN3, 0.01% BSA, 0.1 mM Orthovanadate, 50 mM MgCl2, 1 mM DTT and 0.005% Tween-20. The kinase was incubated with compound for 60 minutes at room temperature and the reaction was initiated by the addition of ATP and Rb (Ser780)-biotin substrate. After reaction at room temperature for 120 minutes, an equal volume of stop/detection solution was added according to the manufacture's instruction (Cisbio Bioassays). The stop/detection solution contained Streptavidin-XL665 and Anti-pRb (Ser780) mAb-Eu Cryptate in Detection buffer (Cisbio Bioassays). Plates were incubated at room temperature for 60 minutes, and the TR-FRET signals (ex337 nm, em665 nm/620 nm) were recorded on a PHERAstar FSX plate reader (BMG Labtech). The inhibition percentage of CDK4/Cyclin D1 or CDK6/Cyclin D3 kinase activity in presence of increasing concentrations of compounds was calculated based on the ratio of fluorescence at 665 nm to that at 620 nm. The IC50 for each compound was derived from fitting the data to the four-parameter logistic equation by Dotmatics.

CDK6/Cyclin D3 = CDK6/Cyclin D3 (Homo sapiens (Human), UniProt Q00534); assay: CDK6/Cyclin D3 kinase TR-FRET inhibition assay; assay type: biochemical; details: 1 mM ATP, Rb (Ser780)-biotin substrate, read-out: CDK6D3 IC50
Sequence of CDK6/Cyclin D3 (Q00534 whole entry): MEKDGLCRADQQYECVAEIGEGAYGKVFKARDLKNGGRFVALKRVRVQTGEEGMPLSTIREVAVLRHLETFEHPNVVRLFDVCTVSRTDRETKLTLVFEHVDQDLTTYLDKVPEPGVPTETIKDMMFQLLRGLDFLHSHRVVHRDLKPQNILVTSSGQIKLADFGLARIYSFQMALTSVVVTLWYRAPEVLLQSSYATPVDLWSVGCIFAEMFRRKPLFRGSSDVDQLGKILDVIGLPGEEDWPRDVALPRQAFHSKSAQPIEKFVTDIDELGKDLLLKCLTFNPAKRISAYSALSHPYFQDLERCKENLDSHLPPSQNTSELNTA
Sequence of CDK6/Cyclin D3 (P30281 whole entry partner): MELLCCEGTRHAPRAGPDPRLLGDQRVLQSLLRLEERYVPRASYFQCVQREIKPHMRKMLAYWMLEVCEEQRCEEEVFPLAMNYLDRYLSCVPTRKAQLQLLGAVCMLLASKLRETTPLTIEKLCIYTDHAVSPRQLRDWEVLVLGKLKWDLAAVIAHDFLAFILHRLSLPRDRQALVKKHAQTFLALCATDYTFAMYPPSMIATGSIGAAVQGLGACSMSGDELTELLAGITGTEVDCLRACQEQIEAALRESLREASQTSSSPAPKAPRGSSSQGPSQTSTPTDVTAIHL
Protocol: as §1

Sequence of CDK4/Cyclin D1 (P11802 whole entry): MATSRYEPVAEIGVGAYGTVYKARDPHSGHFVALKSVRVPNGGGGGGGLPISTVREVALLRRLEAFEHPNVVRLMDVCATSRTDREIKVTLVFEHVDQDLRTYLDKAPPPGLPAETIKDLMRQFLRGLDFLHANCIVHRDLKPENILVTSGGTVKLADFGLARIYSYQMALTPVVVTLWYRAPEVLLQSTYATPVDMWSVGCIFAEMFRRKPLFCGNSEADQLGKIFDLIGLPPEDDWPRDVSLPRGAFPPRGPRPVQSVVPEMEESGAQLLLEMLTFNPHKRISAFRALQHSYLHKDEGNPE
Sequence of CDK4/Cyclin D1 (P24385 whole entry partner): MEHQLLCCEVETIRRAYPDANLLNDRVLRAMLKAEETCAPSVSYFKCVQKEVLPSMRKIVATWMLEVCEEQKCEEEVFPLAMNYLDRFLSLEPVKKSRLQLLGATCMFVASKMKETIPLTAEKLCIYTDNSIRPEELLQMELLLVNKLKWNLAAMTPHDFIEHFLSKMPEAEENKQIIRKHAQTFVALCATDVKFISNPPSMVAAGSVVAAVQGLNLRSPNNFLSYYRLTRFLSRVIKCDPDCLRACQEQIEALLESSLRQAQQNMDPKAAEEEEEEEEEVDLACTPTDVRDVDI

| SMILES | IC50 (CDK4/Cyclin D1) [nM] | IC50 (CDK6/Cyclin D3) [nM] |
| --- | --- | --- |
| CC(C)c1c(C2(O)CCCC2)cnc2ccc(-c3nc(N[C@@H]4CCOC[C@H]4O)ncc3F)cc12 [Example 50, (3S,4R)-4-((5-fluoro-4-(3-(1-hydroxycyclopentyl)-4-isopropylquinolin-6-yl)pyrimidin-2-yl)amino)tetrahydro-2H-pyran-3-ol] | 4.4 | 185 |
| Cc1nc2ccc(-c3nc(N[C@@H]4CCOC[C@H]4O)ncc3F)cc2c(C(C)C)c1C [Example 7, (3S,4R)-4-((5-fluoro-4-(4-isopropyl-2,3-dimethylquinolin-6-yl)pyrimidin-2-yl)amino)tetrahydro-2H-pyran-3-ol] | 44 | 528 |
| Cc1c(-c2nc(N[C@@H]3CCOC[C@H]3O)ncc2F)ccc2nccc(C(C)C)c12 [Example 9, (3S,4R)-4-((5-fluoro-4-(4-isopropyl-5-methylquinolin-6-yl)pyrimidin-2-yl)amino)tetrahydro-2H-pyran-3-ol] | 21 | 92.4 |
| CC(C)c1cc(C(C)(C)O)nc2ccc(-c3nc(N[C@@H]4CCOC[C@H]4O)ncc3F)cc12 [Example 206, (3S,4R)-4-((5-fluoro-4-(2-(2-hydroxypropan-2-yl)-4-isopropylquinolin-6-yl)pyrimidin-2-yl)amino)tetrahydro-2H-pyran-3-ol] | 185 | 1500 |
| CC(C)c1cc(C(C)(C)O)nc2c(F)cc(-c3nc(N[C@@H]4CCOC[C@H]4O)ncc3Cl)cc12 [Example 208, (3S,4R)-4-((5-chloro-4-(8-fluoro-2-(2-hydroxypropan-2-yl)-4-isopropylquinolin-6-yl)pyrimidin-2-yl)amino)tetrahydro-2H-pyran-3-ol] | 146 | 497 |
| CC(C)c1c(CN[C@@H]2CCCOC2)cnc2ccc(-c3nc(N[C@@H]4CCOC[C@H]4O)ncc3F)cc12 [Example 30, (3S,4R)-4-((5-fluoro-4-(4-isopropyl-3-((((R)-tetrahydro-2H-pyran-3-yl)amino)methyl)quinolin-6-yl)pyrimidin-2-yl)amino)tetrahydro-2H-pyran-3-ol] | 11 | 550 |
| CC(C)c1c(CN)cnc2ccc(-c3nc(N[C@@H]4CCOC[C@H]4O)ncc3F)cc12 [Example 38, (3S,4R)-4-((4-(3-(aminomethyl)-4-isopropylquinolin-6-yl)-5-fluoropyrimidin-2-yl)amino)tetrahydro-2H-pyran-3-ol] | 4.4 | 176 |
| CC(C)c1c(C(C)(C)O)cnc2ccc(-c3nc(N[C@@H]4CCOC[C@H]4O)ncc3F)cc12 [Example 2] | 4.6 | 69 |
| CC(C)c1c(CN2CC3CC(C2)O3)cnc2ccc(-c3nc(N[C@@H]4CCOC[C@H]4O)ncc3F)cc12 [Example 14, (3S,4R)-4-((4-(3-((6-oxa-3-azabicyclo[3.1.1]heptan-3-yl)methyl)-4-isopropylquinolin-6-yl)-5-fluoropyrimidin-2-yl)amino)tetrahydro-2H-pyran-3-ol] | 12 | 228 |
| CC(C)c1c(CN2CCOCC2=O)cnc2ccc(-c3nc(N[C@@H]4CCOC[C@H]4O)ncc3F)cc12 [Example 13, 4-((6-(5-fluoro-2-(((3S,4R)-3-hydroxytetrahydro-2H-pyran-4-yl)amino)pyrimidin-4-yl)-4-isopropylquinolin-3-yl)methyl)morpholin-3-one] | 16 | 464 |
| CC(C)c1c(CNC2CC(F)(F)C2)cnc2c(F)cc(-c3nc(N[C@@H]4CCOC[C@H]4O)ncc3F)cc12 [Example 52, (3S,4R)-4-((4-(3-(((3,3-difluorocyclobutyl)amino)methyl)-8-fluoro-4-isopropylquinolin-6-yl)-5-fluoropyrimidin-2-yl)amino)tetrahydro-2H-pyran-3-ol] | 10 | 240 |
| CC(C)c1c([C@H](C)O)cnc2ccc(-c3nc(N[C@@H]4CCOC[C@H]4O)ncc3F)cc12 [Example 41, (3S,4R)-4-((5-fluoro-4-(3-((S)-1-hydroxyethyl)-4-isopropylquinolin-6-yl)pyrimidin-2-yl)amino)tetrahydro-2H-pyran-3-ol] | 10 | 170 |
| Cc1cc(C(C)C)c2cc(-c3nc(N[C@@H]4CCOC[C@H]4O)ncc3Cl)ccc2n1 [Example 5, (3S,4R)-4-((5-chloro-4-(4-isopropyl-2-methylquinolin-6-yl)pyrimidin-2-yl)amino)tetrahydro-2H-pyran-3-ol] | 108 | 810 |
| CC(C)c1c(CNC2CCCCC2)cnc2ccc(-c3nc(N[C@@H]4CCOC[C@H]4O)ncc3F)cc12 [Example 28] | 19 | 703 |
| CC(C)c1c(CNC[C@@H]2CCCO2)cnc2ccc(-c3nc(N[C@@H]4CCOC[C@H]4O)ncc3F)cc12 [Example 34, (3S,4R)-4-((5-fluoro-4-(4-isopropyl-3-(((((S)-tetrahydrofuran-2-yl)methyl)amino)methyl)quinolin-6-yl)pyrimidin-2-yl)amino)tetrahydro-2H-pyran-3-ol] | 27 | 783 |
| CC(C)c1c(C(C)(C)O)cnc2c(F)cc(-c3nc(N[C@@H]4CCOC[C@H]4O)ncc3F)cc12 [Example 67, (3S,4R)-4-((5-fluoro-4-(8-fluoro-3-(2-hydroxypropan-2-yl)-4-isopropylquinolin-6-yl)pyrimidin-2-yl)amino)tetrahydro-2H-pyran-3-ol] | 2.5 | 42.7 |
| CC(C)c1c(CNc2cnn(C)c2)cnc2ccc(-c3nc(N[C@@H]4CCOC[C@H]4O)ncc3F)cc12 [Example 43, (3S,4R)-4-((5-fluoro-4-(4-isopropyl-3-(((1-methyl-1H-pyrazol-4-yl)amino)methyl)quinolin-6-yl)pyrimidin-2-yl)amino)tetrahydro-2H-pyran-3-ol] | 41 | 533 |
| CC(C)c1c(CN[C@@H]2CCOC2)cnc2ccc(-c3nc(N[C@@H]4CCOC[C@H]4O)ncc3F)cc12 [Example 35, (3S,4R)-4-((5-fluoro-4-(4-isopropyl-3-((((R)-tetrahydrofuran-3-yl)amino)methyl)quinolin-6-yl)pyrimidin-2-yl)amino)tetrahydro-2H-pyran-3-ol] | 16 | 592 |
| Cc1cnc2ccc(-c3nc(N[C@@H]4CCOC[C@H]4O)ncc3F)cc2c1C(C)C [Example 6, (3S,4R)-4-((5-fluoro-4-(4-isopropyl-3-methylquinolin-6-yl)pyrimidin-2-yl)amino)tetrahydro-2H-pyran-3-ol] | 9.3 | 158 |
| CC(C)c1c(CNC2CCOC2)cnc2ccc(-c3nc(N[C@@H]4CCOC[C@H]4O)ncc3F)cc12 (stereo partly drawn) [Example 21, (3S,4R)-4-((5-fluoro-4-(4-isopropyl-3-(((tetrahydrofuran-3-yl)amino)methyl)quinolin-6-yl)pyrimidin-2-yl)amino)tetrahydro-2H-pyran-3-ol] | 15 | 495 |
| CC(C)c1c(CNc2ncccn2)cnc2ccc(-c3nc(N[C@@H]4CCOC[C@H]4O)ncc3F)cc12 [Example 45, (3S,4R)-4-((5-fluoro-4-(4-isopropyl-3-((pyrimidin-2-ylamino)methyl)quinolin-6-yl)pyrimidin-2-yl)amino)tetrahydro-2H-pyran-3-ol] | 22 | 286 |
| Cc1c(-c2nc(N[C@@H]3CCOC[C@H]3O)ncc2F)ccc2ncc(CN)c(C(C)C)c12 [Example 145, (3S,4R)-4-((4-(3-(aminomethyl)-4-isopropyl-5-methylquinolin-6-yl)-5-fluoropyrimidin-2-yl)amino)tetrahydro-2H-pyran-3-ol] | 1.7 | 66.1 |
| CC(C)c1c(CNC2CCC2)cnc2ccc(-c3nc(N[C@@H]4CCOC[C@H]4O)ncc3F)cc12 [Example 19, (3S,4R)-4-((4-(3-((cyclobutylamino)methyl)-4-isopropylquinolin-6-yl)-5-fluoropyrimidin-2-yl)amino)tetrahydro-2H-pyran-3-ol] | 20 | 1220 |
| CC(C)c1c(CNC[C@H]2CCOC2)cnc2ccc(-c3nc(N[C@@H]4CCOC[C@H]4O)ncc3F)cc12 [Example 27, (3S,4R)-4-((5-fluoro-4-(4-isopropyl-3-(((((R)-tetrahydrofuran-3-yl)methyl)amino)methyl)quinolin-6-yl)pyrimidin-2-yl)amino)tetrahydro-2H-pyran-3-ol] | 23 | 828 |
| CC(C)c1c(CNC[C@@H]2CCOC2)cnc2ccc(-c3nc(N[C@@H]4CCOC[C@H]4O)ncc3F)cc12 [Example 33, (3S,4R)-4-((5-fluoro-4-(4-isopropyl-3-(((((S)-tetrahydrofuran-3-yl)methyl)amino)methyl)quinolin-6-yl)pyrimidin-2-yl)amino)tetrahydro-2H-pyran-3-ol] | 22 | 792 |
| CC(C)c1c(CN(C)C)cnc2ccc(-c3nc(N[C@@H]4CCOC[C@H]4O)ncc3F)cc12 [Example 11, (3S,4R)-4-((4-(3-((dimethylamino)methyl)-4-isopropylquinolin-6-yl)-5-fluoropyrimidin-2-yl)amino)tetrahydro-2H-pyran-3-ol] | 21 | 567 |
